Assay results published in the supplement of paper PMC11061612.

Legend:
Capivasertib = compound: C1CN(CCC1(C(=O)N[C@@H](CCO)C2=CC=C(C=C2)Cl)N)C3=NC=NC4=C3C=CN4 [Capivasertib]; details: max 10 µM
Summary of the method: (§1)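 Cancer cell lines were dosed for 72 hours (final DMSO typically 0.2%) after 24 hours at 37°C and 5% CO2 in 1536-well plates containing 7.5 μl DMEM/F12 or RPMI with 10% FBS. Viability came from CellTiter-Glo 2.0 luminescence, scaled between blank-well and DMSO-well means, and dose responses were fitted to a two-parameter logistic curve with a non-linear mixed effects model. The single-agent IC50 was obtained from this fit.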

AZD1775 = compound: C=CCn1c(=O)c2cnc(Nc3ccc(N4CCN(C)CC4)cc3)nc2n1-c1cccc(C(C)(C)O)n1 [AZD1775]; details: max 3 µM
Summary of the method: as §1

Trametinib = compound: CC(=O)Nc1cccc(-n2c(=O)n(C3CC3)c(=O)c3c(Nc4ccc(I)cc4F)n(C)c(=O)c(C)c32)c1 [Trametinib]; details: max 1 µM
Summary of the method: as §1

Palbociclib = compound: CC(=O)c1c(C)c2cnc(Nc3ccc(N4CCNCC4)cn3)nc2n(C2CCCC2)c1=O [Palbociclib]; details: max 10 µM
Summary of the method: as §1

AZD1390 = compound: CC(C)n1c(=O)n(C)c2cnc3cc(F)c(-c4ccc(OCCCN5CCCCC5)nc4)cc3c21 [AZD1390]; details: max 0.3 µM
Summary of the method: as §1

Venetoclax = compound: CC1(C)CCC(CN2CCN(c3ccc(C(=O)NS(=O)(=O)c4ccc(NCC5CCOCC5)c([N+](=O)[O-])c4)c(Oc4cnc5[nH]ccc5c4)c3)CC2)=C(c2ccc(Cl)cc2)C1 [Venetoclax]; details: max 1 µM
Summary of the method: as §1

Dasatinib = compound: CC1=C(C(=CC=C1)Cl)NC(=O)C2=CN=C(S2)NC3=CC(=NC(=N3)C)N4CCN(CC4)CCO [Dasatinib]; details: max 2 µM
Summary of the method: as §1

SG3199 = compound: CC1=CN2[C@@H](C1)C=NC3=CC(=C(C=C3C2=O)OC)OCCCCCOC4=C(C=C5C(=C4)N=C[C@@H]6CC(=CN6C5=O)C)OC [SG3199]; details: max 0.001 µM
Summary of the method: as §1

AZD2811 = compound: CCN(CCO)CCCOc1ccc2c(Nc3cc(CC(=O)Nc4cccc(F)c4)[nH]n3)ncnc2c1 [AZD2811]; details: max 1 µM
Summary of the method: as §1

SN-38 = compound: CCc1c2c(nc3ccc(O)cc13)-c1cc3c(c(=O)n1C2)COC(=O)[C@]3(O)CC [SN-38]; details: max 0.3 µM
Summary of the method: as §1

AZD0156 = compound: CN(C)CCCOc1ccc(-c2ccc3ncc4c(c3c2)n(C2CCOCC2)c(=O)n4C)cn1 [AZD0156]; details: max 3 µM
Summary of the method: as §1

AZD4320 = compound: CN(CC[C@H](CSC1=CC=CC=C1)NC2=C(C=C(C=C2)S(=O)(=O)NC(=O)C3=CC=C(C=C3)N4CCC(CC4)[C@H](C5=CC=CC=C5C6=CC=C(C=C6)Cl)O)S(=O)(=O)C(F)(F)F)CCO [AZD4320]; details: max 1 µM
Summary of the method: as §1

Alisertib = compound: COc1cc(Nc2ncc3c(n2)-c2ccc(Cl)cc2C(c2c(F)cccc2OC)=NC3)ccc1C(=O)O [Alisertib]; details: max 10 µM
Summary of the method: as §1

Gefitinib = compound: COc1cc2ncnc(Nc3ccc(F)c(Cl)c3)c2cc1OCCCN1CCOCC1 [Gefitinib]; details: max 10 µM
Summary of the method: as §1

Prexasertib = compound: COc1cccc(OCCCN)c1-c1cc(Nc2cnc(C#N)cn2)n[nH]1 [Prexasertib]; details: max 1 µM
Summary of the method: as §1

Doxorubicin = compound: COc1cccc2c1C(=O)c1c(O)c3c(c(O)c1C2=O)C[C@@](O)(C(=O)CO)C[C@@H]3O[C@H]1C[C@H](N)[C@H](O)[C@H](C)O1 [Doxorubicin]; details: max 1 µM
Summary of the method: as §1

AZD5153 = compound: COc1nnc2ccc(N3CCC(c4ccc(OCCN5CCN(C)C(=O)[C@H]5C)cc4)CC3)nn12 [AZD5153]; details: max 1 µM
Summary of the method: as §1

Lapatinib = compound: CS(=O)(=O)CCNCc1ccc(-c2ccc3ncnc(Nc4ccc(OCc5cccc(F)c5)c(Cl)c4)c3c2)o1 [Lapatinib]; details: max 10 µM
Summary of the method: as §1

AZD8186 = compound: C[C@@H](Nc1cc(F)cc(F)c1)c1cc(C(=O)N(C)C)cc2c(=O)cc(N3CCOCC3)oc12 [AZD8186]; details: max 3 µM
Summary of the method: as §1

Crizotinib = compound: C[C@@H](Oc1cc(-c2cnn(C3CCNCC3)c2)cnc1N)c1c(Cl)ccc(F)c1Cl [Crizotinib]; details: max 10 µM
Summary of the method: as §1

Savolitinib = compound: C[C@@H](c1ccc2nccn2c1)n1nnc2ncc(-c3cnn(C)c3)nc21 [Savolitinib]; details: max 1 µM
Summary of the method: as §1

AZD6738 = compound: C[C@@H]1COCCN1C2=NC(=NC(=C2)C3(CC3)[S@](=N)(=O)C)C4=C5C=CNC5=NC=C4 [AZD6738]; details: max 10 µM
Summary of the method: as §1

AZD5991 = compound: Cc1c2c(nn1C)CSCc1cc(n(C)n1)CSc1cc(c3ccccc3c1)OCCCc1c(C(=O)O)n(C)c3c-2c(Cl)ccc13 [AZD5991]; details: max 1 µM
Summary of the method: as §1

AZD7648 = compound: Cc1cc2ncnn2cc1Nc1ncc2c(n1)n(C1CCOCC1)c(=O)n2C [AZD7648]; details: max 10 µM
Summary of the method: as §1

Taselisib = compound: Cc1nc(-c2cn3c(n2)-c2ccc(-c4cnn(C(C)(C)C(N)=O)c4)cc2OCC3)n(C(C)C)n1 [Taselisib]; details: max 10 µM
Summary of the method: as §1

Selumetinib = compound: Cn1cnc2c(F)c(Nc3ccc(Br)cc3Cl)c(C(=O)NOCCO)cc21 [Selumetinib]; details: max 10 µM
Summary of the method: as §1

MK-2206 = compound: NC1(c2ccc(-c3nc4ccn5c(=O)[nH]nc5c4cc3-c3ccccc3)cc2)CCC1 [MK-2206]; details: max 10 µM
Summary of the method: as §1

Olaparib = compound: O=C(c1cc(Cc2n[nH]c(=O)c3ccccc23)ccc1F)N1CCN(C(=O)C2CC2)CC1 [Olaparib]; details: max 10 µM
Summary of the method: as §1

Row | Cell Line | IC50, cell viability 72 h (Capivasertib) [µM] | IC50, cell viability 72 h (AZD1775) [µM] | IC50, cell viability 72 h (Trametinib) [µM] | IC50, cell viability 72 h (Palbociclib) [µM] | IC50, cell viability 72 h (AZD1390) [µM] | IC50, cell viability 72 h (Venetoclax) [µM] | IC50, cell viability 72 h (Dasatinib) [µM] | IC50, cell viability 72 h (SG3199) [µM] | IC50, cell viability 72 h (AZD2811) [µM] | IC50, cell viability 72 h (SN-38) [µM] | IC50, cell viability 72 h (AZD0156) [µM] | IC50, cell viability 72 h (AZD4320) [µM] | IC50, cell viability 72 h (Alisertib) [µM] | IC50, cell viability 72 h (Gefitinib) [µM] | IC50, cell viability 72 h (Prexasertib) [µM] | IC50, cell viability 72 h (Doxorubicin) [µM] | IC50, cell viability 72 h (AZD5153) [µM] | IC50, cell viability 72 h (Lapatinib) [µM] | IC50, cell viability 72 h (AZD8186) [µM] | IC50, cell viability 72 h (Crizotinib) [µM] | IC50, cell viability 72 h (Savolitinib) [µM] | IC50, cell viability 72 h (AZD6738) [µM] | IC50, cell viability 72 h (AZD5991) [µM] | IC50, cell viability 72 h (AZD7648) [µM] | IC50, cell viability 72 h (Taselisib) [µM] | IC50, cell viability 72 h (Selumetinib) [µM] | IC50, cell viability 72 h (MK-2206) [µM] | IC50, cell viability 72 h (Olaparib) [µM]
1 | U251 (Low Grade Glioma) | > 10 | > 3 | > 1 | > 10 | > 0.3 | > 1 | > 2 | > 0.001 | > 1 | 0.0131 | > 3 | > 1 | > 10 | > 10 | 0.323 | > 1 | > 1 | > 10 | > 3 | > 10 | > 1 | > 10 | > 1 | > 10 | > 10 | > 10 | > 10 | > 10
2 | TC-71 (Ewing's Sarcoma) | > 10 | 1.31 | > 1 | > 10 | > 0.3 | > 1 | > 2 | > 0.001 | 0.114 | 0.00221 | > 3 | 0.278 | 1.03 | > 10 | 0.0504 | 0.812 | 0.224 | > 10 | > 3 | 6.7 | > 1 | 2.74 | > 1 | > 10 | 4.2 | > 10 | > 10 | > 10
3 | TE-6 (Esophageal Squamous Cell Carcinoma) | 2.84 | > 3 | > 1 | > 10 | > 0.3 | > 1 | > 2 | > 0.001 | > 1 | > 0.3 | > 3 | > 1 | 6 | 1.75 | 0.893 | > 1 | 0.396 | 3.4 | > 3 | > 10 | > 1 | 9.32 | 0.94 | > 10 | 0.245 | > 10 | 6.61 | > 10
4 | KARPAS-45 (T-Lymphoblastic Leukemia) | 3.21 | 0.243 | > 1 | 0.624 | > 0.3 | > 1 | 0.937 | > 0.001 | 0.00687 | > 0.3 | > 3 | 0.0521 | 0.0863 | 9.06 | 0.0336 | > 1 | 0.0251 | 4.37 | > 3 | 1.17 | > 1 | 3.14 | 0.0931 | > 10 | 1.45 | > 10 | – | > 10
5 | MFM-223 (Breast Carcinoma) | 1.62 | 2.3 | > 1 | > 10 | > 0.3 | > 1 | > 2 | > 0.001 | > 1 | > 0.3 | > 3 | > 1 | 0.633 | > 10 | 0.0599 | > 1 | > 1 | > 10 | > 3 | > 10 | > 1 | 5.2 | > 1 | > 10 | 1.16 | > 10 | – | > 10
6 | EVSA-T (Breast Carcinoma) | 0.289 | > 3 | > 1 | > 10 | > 0.3 | > 1 | > 2 | > 0.001 | > 1 | > 0.3 | > 3 | > 1 | 6.35 | > 10 | > 1 | > 1 | 0.0652 | 4.49 | 0.199 | 3.36 | > 1 | > 10 | 0.0561 | > 10 | 1.05 | > 10 | – | > 10
7 | HDQ-P1 (Breast Carcinoma) | > 10 | 0.565 | > 1 | > 10 | > 0.3 | > 1 | 0.103 | > 0.001 | > 1 | 0.0958 | > 3 | > 1 | > 10 | > 10 | 0.53 | > 1 | > 1 | > 10 | > 3 | > 10 | > 1 | > 10 | > 1 | > 10 | 4.57 | > 10 | – | > 10
